Columns and labels:
glutathione = assay: Glutathione reactivity assay; assay type: physicochemical; conditions: 6 mM glutathione in PBS, 40 °C; read-out: GSH t1/2 (converted)
Description: 10 mM DMSO stocks of compounds 6 and 7 were diluted 20-fold with acetonitrile, and then further 5-fold diluted with 6 mM glutathione in PBS. The reaction was shaken before incubation at 40 °C. The reaction mixture was analysed via UPLC-UV-MS up to eight times across 24 hours, compared to known reference compounds and samples of each compound in distilled water. UPLC conditions: flow rate: 800 μL min^−1; column: acquity UPLC BEH C18 1.7 μm 2.1 × 50 mm; column temperature: 37 °C; mobile phase A: 0.1% formic acid in H2O; mobile phase B: 0.1% formic acid in 100% ACN; run time: 2 minutes; gradient elution: 97% A to 0% A; UV conditions: 210 to 350 nm range; MS conditions: single quad, ESI+, scan range: 50–1000 Da. For each time point, the UV peak area of the parent peak was extracted at a single wavelength (e.g., 254 nm). A pseudo-first-order rate constant (k) for each compound was determined from the slope of a linear regression fit for a plot of the […] peak area of the parent compound versus the time differential for the eight time points; the t1/2 is calculated as follows: t1/2 = 0.693/k.

SspH2 (C580) = biological target: T1, SspH2 (C580) (Salmonella typhimurium, UniProt D0ZPH9); assay: IA-DTB competitive chemoproteomics in spiked HEK293T lysate; assay type: binding; conditions: HEK293T lysate spiked with recombinant protein, four hours at RT
T1 construct: Recombinant SspH1 (aa 161–700) and SspH2 (aa 166–783) were both characterised; His-tag (N, cleaved yes); made in house; host or cells: E. coli BL21
Description: (§1) HEK293T lysate supplemented with recombinant SspH1 (161–700) and SspH2 (166–783) was treated with a dilution series […] of either compound 6 or 7 for four hours at RT. Following compound treatments, we used an iodoacetamide-desthiobiotin (IA-DTB) competitive chemoproteomics workflow to assess cysteine engagement.[52] Comparison of DMSO treated lysate with compound treated lysate enabled identification of peptides where IA-DTB labelling of cysteines was blocked due to fragment engagement (Fig. S5). […] Competition of the SspH2 C580 peptide occurred at lower concentrations compared to the SspH1 C492 peptide, which corroborated our previous kinetics experiments that both compounds label SspH2 faster than SspH1 (Fig. S4).
(§2) Fig. 5 Characterisation of protein interactions by compounds 6 and 7. (A) SspH1 and SspH2 catalytic cysteine labelling with compound 6 (100–3.125 μM, 4 hours) in HEK293T lysate spiked with recombinant SspH1 and SspH2. Data are presented as mean ± SEM, n = 4. The curves were fitted with GraphPad Prism 10 using four parameter nonlinear regression with baseline correction to DMSO-treated samples. (B) SspH1 and SspH2 catalytic cysteine labelling with compound 7 (100–3.125 μM, 4 hours) in HEK293T lysate spiked with recombinant SspH1 and SspH2. Data are presented as mean ± SEM, n = 4. The curves were fitted with GraphPad Prism 10 using four parameter nonlinear regression with baseline correction to DMSO-treated samples. (C) Volcano plot of IA-DTB competition in SspH1 expressing HEK293T cells treated with compound 6 (50 μM, 4 hours). (D) Volcano plot of IA-DTB competition in SspH2 expressing HEK293T cells treated with compound 6 (50 μM, 4 hours). Data is shown as compared to DMSO treated samples, with competed peptides in the upper left-hand quadrant. Competed catalytic cysteine-containing peptides of HECT E3s (yellow), UCH DUBs (blue) and OTU DUBs (purple) are indicated. All proteomics experiments were performed with technical quadruplicates.
(§3) A pellet of 50 × 10^6 HEK293T cells was resuspended in 5 mL lysis buffer (50 mM HEPES pH 8.0, 150 mM NaCl, 1% IGEPAL, 0.1% SDS, 0.5% Na-deoxycholate, supplemented with protease inhibitor cocktail (Sigma-Aldrich, P8340)). The lysate was sonicated and centrifuged (10 min, 17 000 × g) and the soluble fraction isolated. Protein concentrations were measured using a Rapid BCA Gold Protein Assay Kit (Thermo Scientific, A53226) and diluted to 0.75 mg mL^−1 with lysis buffer. The lysate was then spiked with 0.2 μM of each recombinant SspH1 (aa 161–700) and SspH2 (aa 166–783). For each condition, four wells were treated and processed separately, representing four technical replicates. 2 μL of 100× stocks of compounds 6 and 7 in DMSO (10–0.156 mM, and DMSO only control), and 200 μL lysate was added to a 96-well plate. […]

SspH1 (C492) = biological target: T2, SspH1 (C492) (Salmonella typhimurium, UniProt D0ZVG2); assay: as above; assay type: binding; conditions: HEK293T lysate spiked with recombinant protein, four hours at RT
T2 construct: Recombinant IpaH9.8 (21–545) and SspH1 (161–700) were incubated at 0.5 μM; His-tag (N, cleaved yes); made in house; host or cells: E. coli BL21
Description: as §1, §2, §3

T2 sequence (D0ZVG2 161-700): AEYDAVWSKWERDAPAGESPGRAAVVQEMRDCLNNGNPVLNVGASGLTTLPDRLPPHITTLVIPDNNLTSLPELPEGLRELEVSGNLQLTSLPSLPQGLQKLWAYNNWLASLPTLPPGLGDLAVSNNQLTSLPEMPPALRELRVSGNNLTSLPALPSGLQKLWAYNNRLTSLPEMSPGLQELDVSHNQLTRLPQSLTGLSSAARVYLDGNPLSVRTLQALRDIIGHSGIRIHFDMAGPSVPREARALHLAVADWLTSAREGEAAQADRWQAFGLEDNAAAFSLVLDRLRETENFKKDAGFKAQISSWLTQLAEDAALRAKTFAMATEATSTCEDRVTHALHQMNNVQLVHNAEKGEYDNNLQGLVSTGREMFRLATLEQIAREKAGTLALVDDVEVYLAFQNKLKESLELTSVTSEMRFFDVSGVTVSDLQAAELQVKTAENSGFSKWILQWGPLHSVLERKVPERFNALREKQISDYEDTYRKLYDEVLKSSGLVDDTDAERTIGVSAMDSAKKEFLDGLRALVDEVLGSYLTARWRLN
T1 sequence (D0ZPH9 166-783): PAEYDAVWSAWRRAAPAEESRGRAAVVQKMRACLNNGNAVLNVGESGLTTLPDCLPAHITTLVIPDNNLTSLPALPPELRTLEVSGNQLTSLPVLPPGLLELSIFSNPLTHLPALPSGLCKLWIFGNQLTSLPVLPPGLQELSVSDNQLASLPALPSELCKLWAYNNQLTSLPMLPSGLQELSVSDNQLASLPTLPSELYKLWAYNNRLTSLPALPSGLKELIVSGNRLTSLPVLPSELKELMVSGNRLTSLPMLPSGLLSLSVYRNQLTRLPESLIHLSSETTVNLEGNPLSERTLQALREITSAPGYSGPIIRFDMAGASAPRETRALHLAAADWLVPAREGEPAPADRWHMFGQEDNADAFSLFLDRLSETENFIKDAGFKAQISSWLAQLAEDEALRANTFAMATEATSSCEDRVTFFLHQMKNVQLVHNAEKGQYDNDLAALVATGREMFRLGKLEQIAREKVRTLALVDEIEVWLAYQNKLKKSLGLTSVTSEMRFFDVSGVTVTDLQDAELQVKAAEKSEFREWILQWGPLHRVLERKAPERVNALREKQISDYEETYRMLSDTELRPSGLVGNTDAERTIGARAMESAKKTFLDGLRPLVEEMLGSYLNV

| SMILES | half-life at 100 µM (glutathione) | competition of IA-DTB labelling of the C580 peptide for SspH2 (SspH2 (C580)) | competition of IA-DTB labelling of the C492 peptide for SspH1 (SspH1 (C492)) |
| --- | --- | --- | --- |
| Cc1cc(-c2nc3ccccc3n2C2CCN(C(=O)CCl)CC2)cc(C)c1O.Cl [compound 6] | 4.9 h | concentration-dependent competition | concentration-dependent competition |
| Cl.O=C(CCl)N1CCC(n2c(-c3ccc(C(F)(F)F)cc3)nc3ccccc32)CC1 [compound 7] | 4 h | concentration-dependent competition | concentration-dependent competition |

Reference: paper PMC12584752, “Covalent fragment screening to inhibit the E3 ligase activity of bacterial NEL enzymes SspH1 and SspH2” (RSC Chemical Biology, 2025)
